From US11433043B2, “Compounds useful for increasing neurogenesis in neural tissue” (ALFASIGMA S.P.A., priority 2010, dated 2022)

Tests used:
Type in all cases: cell-based
[1] = tested on: adult neural progenitors taken from the mouse hippocampus; assay: Differentiation of stem cells/adult neural progenitors from hippocampal neurospheres (MAP-2/nestin immunofluorescence); settings: for NPC neuronal differentiation: compared to ALC 1 mM
Description: The adult stem cells from the mouse hippocampus were prepared and maintained in culture in the form of neurospheres as described previously in Denis-Donini S. et al. J. Neuroscience, 2008. In particular, male CD1 mice aged 3-5 months were used, in accordance with the animal experimentation laws.
For differentiation, the cells derived from the hippocampal neurospheres with passages of between 4-12 were dissociated and plated on Lab-Tek 8-well permanox chamber slides (Nunc, Wiesbaden, Germany) previously coated with mouse laminin (2.5 μg/cm^2 Sigma) at a density of about 40,000 cells/cm^2. The composition of the differentiation medium was: Neurobasal-A, supplement B27, glutamine 2 mM, 100 U/100 μg/ml penicillin/streptomycin. ALC (0.1-2 mM) or a vehicle was added to the medium. After 24 hours the cells were washed and fixed in 4% paraformaldehyde for 20 min for subsequent analysis using immunofluorescence.
The cells fixed after differentiation in the presence of ALC, a vehicle or reference drugs were washed three times in PBS and permeabilized by incubation for 5 min, at room temperature with PBS supplemented with 0.48% (vol/vol) Triton X-100 (Sigma). Subsequently the cells were incubated with the following primary antibodies: anti-nestin mouse monoclonal antibody, 1:1200, Abcam, Cambridge, Mass.); anti-MAP-2 (rabbit polyclonal antibody, 1:600, Chemicon). The cells were incubated in the primary antibody for 150 min at room temperature in a solution containing 8% (vol/vol) of goat serum. The secondary antibodies used were: Alexa Fluor 594-conjugated donkey anti mouse antibody (1:1400, Molecular Probes), Alexa Fluor 488-conjugated donkey anti-rabbit (1:1 600, Molecular Probes), in a solution containing 16% (vol/vol) of donkey serum. The nuclei were then counterstained with Draq5 (1:2000, Alexis Biochemicals) prepared in PBS. The slides were assembled using Fluorescent Mounting Medium (DakoCytomation, Glostrup).
In each experiment, the cells of at least 5 fields/well (corresponding to about 150 cells), were quantified if positive to one or more phenotypical markers used to distinguish between them: undifferentiated stem progenitor cells, immature neurons, mature neurons. The cells were counted by an operator (blind to the nature of the treatment undergone by the cells) using an ECLIPSE E600 fluorescence microscope (NIKON, Calenzano, Italy) with a 60× lens. All experiments were conducted on at least five cell preparations, with each experimental point in triplicate.

[2] = tested on: adult neural progenitors taken from the mouse hippocampus; assay: Cell survival: apoptotic nuclei (Hoechst staining) after differentiation
Description: (§1) After differentiation in the presence of ALC, a vehicle or reference drugs, the medium was collected and the activity of the LDH enzyme was determined using the Cytotoxicity Detection Kit LDH (Roche Applied Science), following the manufacturer's instructions, to quantify death due to necrosis. In parallel, to assess also apoptotic death, after fixation, the cell nuclei were marked with 0.8 ng/ml Hoechst (Sigma-Aldrich) diluted in PBS. The apoptic nuclei were counted by an operator (blind to the nature of the treatment undergone by the cells) using an ECLIPSE E600 fluorescence microscope (NIKON, Calenzano, Italy) with a 60× lens. All experiments were conducted on at least five cell preparations, with each experimental point in triplicate.

[3] = tested on: adult neural progenitors taken from the mouse hippocampus; assay: Cell survival: LDH enzyme activity in culture medium (necrosis)
Description: as §1

[4] = Example 1, ALC 0.1-2 mM, 24 hours, FIG. 5
[5] = Example 2, 0.3-1 mM, lesser extent compared to ALC 1 mM, FIG. 6
[6] = at the concentrations that induced neurogenesis

SMILES | percentage of MAP-2 positive cells in culture ([1]; Example 1, ALC 0.1-2 mM, 24 hours differentiation, concentration-dependent, FIG. 1) | number of immature neurons (MAP2 positive, nestin positive) [1, 4] | number of progenitor cells (MAP2 negative, nestin negative) [1, 4] | number of stem/progenitor cells (MAP2 negative, nestin positive) [1, 4] | number of mature neurons (MAP2 positive, nestin negative) ([1]; Example 1, ALC 0.1-2 mM, 24 hours, concentration-dependent, FIG. 5) | percentage of apoptotic nuclei ([2]; ALC 100 μM, 300 μM or 1 mM, FIG. 3) | activity of the LDH enzyme, an index of necrosis, in the culture medium ([3]; ALC 100 μM, 300 μM or 1 mM, FIG. 4) | NPC neuronal differentiation ([1]; Example 2, 0.3-1 mM, FIG. 6) | number of a subpopulation of undifferentiated stem/neural progenitors [1, 5] | number of immature neurons [1, 5] | number of mature neurons [1, 5] | percentage of apoptotic nuclei [2, 6] | activity of the LDH enzyme, an index of necrosis [3, 6]
CC(=O)O[C@H](CC(=O)[O-])C[N+](C)(C)C [ALC, acetyl L-carnitine] | increase | increased | decreased | no effect | increased | did not reduce | did not reduce | – | – | – | – | – | –
C[N+](C)(C)C[C@H](O)CC(=O)[O-] [LC, L-carnitine] | – | – | – | – | – | – | – | no effect | – | – | – | – | –
CCC(=O)O[C@H](CC(=O)[O-])C[N+](C)(C)C [PLC, propionyl L-carnitine] | – | – | – | – | – | – | – | less potent activator | reduced | increased | increased | did not reduce | did not reduce
